# How the values were obtained:
# [1] = test system: HPV16 PsVs; test: HPV16 PsV binding to HaCaT cells at 4° C. (L1 immunoblot / immunofluorescence); assay type: cell-based
# Procedure: FIG. 4. PolyR treatment of host cells inhibits HPV16 binding to cells. (A) Confluent HaCaT cell monolayers were treated with 1 μM polyR (in CM) for 30 minutes, before adding 100 vge/cell HPV16 PsVs, and incubated at 4° C. for one hour (to promote binding but prevent virus internalization). After washing out of unbound virus, cells were lysed (25 mM Tris pH7.5, 150 mM NaCl, 1% Triton-X100 supplemented with protease inhibitors) and centrifuged at 16,000×g for 10 minutes. Protein concentrations in supernatant were measured using the Bradford method (Bio-Rad Laboratories, Inc., Hercules, Calif.). Samples were boiled in SDS-containing sample buffer, and aliquots containing equal amount of protein ([…] to 200 μg) separated by SDS-polyacrylamide gel electrophoresis (SDS-PAGE), using 10% gel. Proteins were transferred onto polyvinylidene difluoride (PVDF) membranes and subjected to analysis using anti-HPV16 L1 primary antibody (Camvir-1, sc-47699, Santa Cruz Biotechnology, Inc., Dallas, Tex.;1:5000 dilution) for detection of HPV16 major capsid protein, L1. Proteins were visualized by enhanced chemiluminescence (SUPERSIGNAL West Pico Chemiluminescent Substrate, Thermo Fisher Scientific, Inc., Waltham, Mass.) and exposed to film (Phenix Research Products, Candler, N.C.). (B) Immunofluorescence assays were performed essentially as described previously (Surviladze et al., 2012. PLoS Pathogens 8:e1002519). HaCaT cells were grown on coverslips at approximately 50% confluence and treated with 3 μM polyR for 30 minutes at 37° C. before the addition of 1000 vge of HPV16 PsVs per coverslip. Cells were incubated for one hour at 4° C. and washed several times with PBS, before the fixation with 4% paraformaldehyde (PFA). BSA-blocked cells were incubated with rabbit polyclonal HPV16 antibody (antibody was affinity-purified from rabbit anti-HPV VLP antisera). PBS-washed slides were incubated with donkey AF488-conjugated anti-rabbit IgG secondary antibody; phalloidin-rhodamine (Cytoskeleton, Inc., Denver, Colo.) was used for actin staining. After extensive washing with PBS, cells were mounted in Gold Antifade and immunofluorescent (IF) images were captured by confocal photo-microscopy.
# (A) HPV16 PsVs were bound to HaCaT cells (one hour at 4° C.), before the addition of […]. After a one-hour incubation at 4° C., unbound virus was washed out, cells were lysed and analyzed for the content of HPV L1 protein. (B) HaCaT cells were exposed to HPV 16 PsV at 4° C. in the absence of polyR, simultaneously with polyR (0 h), or one hour after polyR treatment (+1 h). After extensive washing with PBS, cells were lysed and analyzed for the content of HPV16 L1 protein.
# FIG. 16. PrS pretreated cells binding of HPV16. Confluent HaCaT cell monolayers were treated with 1 μM PrS (in CM) before the addition of 200 vge/cell HPV16 PsVs and incubated at 4° C. for one hour (conditions to prevent virus internalization). After washing out of unbound virus, cells were lysed (25 mM Tris pH7.5, 150 mM NaCl, 1% Triton-X100 supplemented with protease inhibitors) and centrifuged at 16,000×g for 10 minutes. Protein concentrations in supernatant were measured using the Bradford method (Bio-Rad Laboratories, Inc., Hercules, Calif.). Samples were boiled in SDS-containing sample buffer, and aliquots containing equal amount of protein (˜50 μg to 200 μg) separated by SDS-polyacrylamide gel electrophoresis (SDS-PAGE) using 10% gel. […]
# [2] = test system: HPV16 PsVs; test: Mouse cervicovaginal HPV16 PsV infection model (luciferase in vivo imaging); set-up: species or system BALB/c mice; conditions: 2 μM in 3% CMC, intravaginal, cytobrush abrasion, imaging 48 h after PsV, n=3
# Source text: FIG. 11. PolyR inhibits HPV16 infectivity in vivo. (A). Six-week-old to eight-week-old female BALB/c mice were exposed to HPV16 PsVs transducing Luciferase (5×10^8 infection units (IU)/animal). (B). Percent of in vivo infectivity represents % of infection calculated from luciferase readouts from panel A. Error bars represents SD n=3. Luciferase raw data (average radiance photons/s/cm^2) of polyR-untreated mice is considered as 100%.
# Until recently, in vivo animal studies on infectivity of HPV were problematic, because productive papillomavirus infection is species-restricted and tissue-restricted, and traditional models use animal papillomaviruses in closely related or native host species. However, a recently developed mouse model of cervicovaginal infection using HPV16 PsVs has overcome such restrictions (Roberts et al., 2007. Nature Medicine 13:857-861). In the original study, 3% carboxymethylcellulose (CMC) was used to mimic the viscosity of a typical vaginal gel and determined that disruption of genital epithelium by chemical (Nonoxynol-9) or mechanical (using cytobrush) injury is crucial for efficient HPV PsV infection. Nonoxynol-9 (N-9) is a highly toxic strong non-ionic detergent that disturbs the normal architecture of animal and human genital epithelium. […] The average radiance per mouse was measured in photons/s/cm^2/sr for a set region (of equal dimensions) among mice.
substance,measurement,setting,value
poly-L-arginine [polyR],HPV16 binding to pre-treated cells (L1 immunoblot),"[1]; 1 μM, 30 min pre-treatment, 100 vge/cell, 4° C. 1 h",almost completely blocked HPV16 binding
same,HPV16 bound to cell surface (confocal microscopy),"[1]; 3 μM, 30 min pre-treatment, 4° C. 1 h",dramatically reduced detection of HPV bound to the cell surface
same,reduction of HPV binding to cells,"[1]; polyR and HPV added simultaneously, 4° C.",≈ 50%
same,reduction of infection in vivo,[2],50%

# Reference: patent US11045519B2, “Arginine-rich polypeptide compositions and methods of using same” (UNM Rainforest Innovations, priority 2017, dated 2021)
